We go through four molecules from patent US9381349B2, “Apparatus for treating cerebral neurovascular disorders including headaches by neural stimulation” (priority 1997, dated 2016).

For data set [1] the following is noted: in vivo; cited from earlier work.
For data set [2], the system named is acute migraine episodes. As to the kind of experiment: Dorsonasal administration of bupivacaine for inhibition of acute migraine episodes (Example 2). The class given is in vivo, human. The text has this: The purpose of the experiments described in this Example was to determine the efficacy of dorsonasal administration of bupivacaine for inhibition of acute migraine episodes. Bupivacaine was dorsonasally administered to individual patients experiencing head pain, other symptoms, or both, believed to be associated with an acute migraine episode. Patients assessed head pain prior to and after bupivacaine administration.
The materials and methods used in the procedures performed in this Example were substantially the same as the materials and methods described in Example 1, with the exception that the composition which was administered to the patients described in this example comprised a 0.75% (w/v) solution of bupivacaine.
The organization of and the abbreviations used in Table 6 are analogous to those used in Table 1, with the exception that “B” in the treatment column refers to bupivacaine.

A further data set has as its system muscular headache. As to the kind of experiment: Dorsonasal administration of bupivacaine for muscular headache episodes (Example 5). The class given is in vivo, human. The settings on record: for Pain intensity after administration: 0.75% bupivacaine. The text has this:
The purpose of the experiments described in this Example was to determine the efficacy of dorsonasal administration of bupivacaine for inhibition of muscular headaches. Bupivacaine was dorsonasally administered to four individual patients experiencing head pain and other symptoms associated with a severe muscular headache episode. All of the patients had areas of sustained craniocervical muscle contraction and tenderness which was absent in all patients following headache resolution. Patients assessed head pain prior to and after bupivacaine administration. The four patients and their responses were as follows.

Data set [3] relates to headache. As to the kind of experiment: Dorsonasal headache treatment using bupivacaine (Example 8). Particulars: two patients. The class given is in vivo, human. How it is done:
Two different headache patients were treated by delivering about 0.25-0.75 milliliters of a 0.75% (w/v) bupivacaine solution to each nostril of the patients. The solution was administered by passing the solution along a plastic cannula having an absorbent portion affixed at the distal (i.e., outlet) portion thereof. This cannula had also been bent to conform its shape such that the outlet of the cannula and the affixed absorbent portion were located dorsonasally. The solution was passed along the cannula, and the cannula was left in place for several minutes.

The conditions of data set [4]: cited from earlier work.
For data set [5] the following is noted: n-heptane/buffer biphasic system; cited from earlier work.
For a further data set, the system named is nerve structure. The settings on record: intranasally administered; cited from earlier work.
Data set [6] concerns migraine. The settings on record: lidocaine, Intranasal Spray; 10-point pain scale.
The test system of data set [7] is headache. The settings on record: 10% (w/v) lidocaine solution sprayed through dorsonasal cannula; three patients.
Experimental: The solution was administered by spraying it through a plastic cannula which had been bent to conform its shape such that the outlet of the cannula was located dorsonasally. The cannula was inserted into each nostril, and the solution was sprayed through the cannula, exiting therefrom through the outlet.
For data set [8], the system named is migraine. The settings on record: intranasal spray of 1-2 milliliters 4% (w/v) lidocaine; within fifteen minutes; cited from earlier work.
Data set [9] has as its system acute migraine episodes. Type of data set: in vivo, human. The text has this: The purpose of the experiments described in this Example was to determine the efficacy of dorsonasal administration of ropivacaine for inhibition of acute migraine episodes. Ropivacaine was dorsonasally administered to individual patients experiencing head pain, other symptoms, or both, believed to be associated with an acute migraine episode. Patients assessed head pain prior to and after ropivacaine administration.
Ropivacaine-HCl (NAROPINT™, Astra USA, Westborough, Mass.) was used as the commercially-available 0.75% (w/v) solution, and was obtained in 30 milliliter, sterile injectable vials.
Three methods were used to achieve dorsonasal delivery of ropivacaine to individual patients. Ropivacaine was administered to a first group of patients by an intranasal drip method. Ropivacaine was administered to a second group using cotton swabs, the absorbent portions of which were saturated with the ropivacaine solution. Ropivacaine was administered to patients in a third group by spraying the ropivacaine solution into each nostril, using either a squeeze-type spray bottle or a metered-dose spray bottle.
The intranasal drip method used to administer ropivacaine to the first group of patients was a based on the method described by Barre (1982, Headache 22:69-73), except that the ropivacaine solution was used in place of the solution used by Bane. Approximately 0.75 milliliter to approximately 1.0 milliliter of the ropivacaine solution was administered by way of each of the nostrils of each patient.
The cotton swab method used to administer ropivacaine to the second group of patients comprised gently inserting cotton swabs, sequentially and bilaterally, into the nostrils of patients and urging the swabs dorsally until their absorbent portions contacted portions of nasal epithelium located dorsal to the middle conchae. Each swab was left in place for approximately one minute, and was then withdrawn. Approximately 0.5 milliliter of the ropivacaine solution was delivered to each nostril using this method.
Patients in a third group were administered ropivacaine by spraying less than about 0.5 milliliter of the ropivacaine solution into each of the patient's nostrils using either a sterile squeeze bottle or a sterile metered-dose spray bottle of known design. The design and operation of each of these spray bottles are well known in the art.
Prior to administration of ropivacaine, each patient was placed in a supine position with the patient's head hyperextended approximately 45 degrees and rotated approximately 30 degrees to the right side. In this position, an imaginary line extending from the region of the nasal epithelium overlying the SPG of the patient through the patient's left nostril was approximately vertical. Ropivacaine was then administered to the left nostril of the patient as described for each of the three groups of patients. Ropivacaine was administered to each patient's right nostril after rotating the patient's head approximately 30 degrees to the left. Ropivacaine was administered to both nostrils of each patient to prevent cases of unilateral migraine from developing into contralateral migraine.
Prior to ropivacaine administration, each patient rated perceived headache pain according to a standard pain scale of the type used in the art. Patients were asked to rank the severity of pain which they were experiencing on a scale from 0 (no pain) to 10 (worst pain imaginable). This ten-point pain rating scale is analogous to, but has more gradations than, the four-point rating system used by the International Headache Society (IHS; Headache Classification Committee of the International Headache Society, 1988, Cephalalgia 8(Suppl. 7):19-28). Ropivacaine was administered to one nostril of each patient, and then to the other. The time required to administer ropivacaine to both nostrils of each patient was approximately three minutes. […]

In a further data set the test system is tinnitus. As to the kind of experiment: Inhibition of tinnitus by dorsonasal administration of ropivacaine (Example 4). The class given is in vivo, human. The settings on record: patient 4-2. The text has this:
Ropivacaine was dorsonasally administered to each of three patients using the nasal spray method or the nasal drops method described herein.

[10] abbreviates: bupivacaine 0.75% (w/v), 2 Sprays, individual patients, pain scale 0-10.
[11] abbreviates: bupivacaine 0.75% (w/v), 2 cc Drops, individual patient, pain scale 0-10.
[12] abbreviates: lidocaine 2.0% (w/v), 1 cc Drops, individual patients, pain scale 0-10.

Each structure is given as a SMILES string. Entries after “also recorded” stand apart in the source; their conditions may differ. Where two headings read alike, the source gives them in different places. A value given as a limit tells only on which side of the number the result lay.

Regarding `CCCN1CCCC[C@@H]1C(=O)Nc1c(C)cccc1C` (single isomer, unassigned) [R(dextro) enantiomer of ropivacaine], in data set [1], the Cardiotoxicity result is reported as “Cardiotoxicity is a side effect”.

For the molecule `CCCCN1CCCCC1C(=O)Nc1c(C)cccc1C` (stereo not shown) [Bupivacaine, bupivacaine], the “Pain 5 min post-treatment” value in the data set with acute migraine episodes [2] (bupivacaine 0.75% (w/v), 2 Sprays, individual patients (first or 2nd treatment), pain scale 0-10, listed as B) was “Pain 5 min post-2nd-treatment: 0”; in the data set with acute migraine episodes [2] (setting [11]), “Pain 5 min post-treatment: 1-2”; in the data set with acute migraine episodes [2] (bupivacaine 0.75% (w/v), Sat'd Cotton Swab, individual patient, pain scale 0-10), “Pain 5 min post-treatment: 0”. Besides, in the data set on acute migraine episodes [2] (bupivacaine 0.75% (w/v), 2 Sprays, individual patients, listed as B), the “Rebound / recurrence at follow-up” value is “Recurrence 4 hours post-treatmt; also recorded: No rebound up to 24 hours”. Moreover, in the data set on acute migraine episodes [2] (setting [10]), the “Pain 3 min post-treatment” value is “Pain 3 min post-treatment: 0”. For the same molecule, the “Pain 10 min post-treatment” value in the data set on acute migraine episodes [2] (setting [10]) and in the data set with acute migraine episodes [2] (setting [11]) was “Pain 10 min post-treatment: 0” in each case. The “Associated symptom after treatment” value with acute migraine episodes [2] (bupivacaine 0.75% (w/v), 2 cc Drops, P2#3) is given as “Head pressure persisted”. The Rebound at follow-up result with acute migraine episodes [2] (bupivacaine 0.75% (w/v), 2 cc Drops, individual patients) is “No rebound up to 24 hours”; with acute migraine episodes [2] (bupivacaine 0.75% (w/v), Sat'd Cotton Swab, individual patient), “No rebound up to 24 hours”. Further, in the data set on acute migraine episodes [2] (bupivacaine 0.75% (w/v), all seven patients), the “Time to arrest of migraine” value was no more than 10 min. Moreover, the “Rebound of migraine within twenty-four hours of treatment” value in the data set with acute migraine episodes [2] (bupivacaine 0.75% (w/v), seven patients) was “Six of the seven patients treated using bupivacaine experienced no rebound”. In addition, the “Efficacy for relief of headache pain associated with migraine” value with acute migraine episodes [2] (preliminary data) is on record as “efficacy similar to that of ropivacaine”. Also, the “Pain intensity after administration” value is 0 in the data set on muscular headache (Patient 1, from about 8, within about 15 minutes, tension headache); 0 in the data set on muscular headache (Patient 2, from about 7, within about 7 minutes, muscle contraction headache); “about 1” with muscular headache (Patients 3 (from about 5) and 4 (from about 7), within about 5 minutes, tension headache). For the same molecule, the “Muscle knots after treatment” value in the data set with muscular headache (Patient 4, 5 minutes after treatment) was “muscle knots were no longer perceived”. The “Relief from headache symptoms” value in the data set with headache [3] (0.75% (w/v) bupivacaine solution via cannula with absorbent portion) is reported as “Both of these patients experienced rapid relief”. For the same molecule, in the data set on headache [3] (0.75% (w/v) bupivacaine solution, follow-up about one day), the “Rebound of headache symptoms” value is reported as “neither patient experienced rebound of headache symptoms within about one day”. Moreover, in data set [4], the “Proportion bound to protein in vivo” value was “Approximately 95%”. Also, the “Partition coefficient relative to lidocaine” value in [5] is on record as “about 10 times”.

As for `CCN(CC)CC(=O)Nc1c(C)cccc1C` [Lidocaine, lidocaine], the Duration of action entry in the data set with nerve structure is reported as “shorter than about one hour”. In the data set on migraine [6], the “Rate of Pain Relief (migraine pain reduction per minute per gram of drug)” value worked out at 10.0. Moreover, the “Relief from headache symptoms” value in the data set with headache [7] is listed as “All three patients experienced rapid relief”. The “Patients with decreased head pain / effectiveness to reduce migraine pain” value with migraine [8] is 55%. Besides, the “Oropharyngeal numbness” value in the data set with acute migraine episodes [9] (human, in vivo, 15 min) was 6. Further, in the data set with acute migraine episodes [9] (setting [12]), the “Pain 5 min post-treatment” value is on record as “Pain 5 min post-treatment: 2”, the “Pain 30 min post-treatment” value was “Pain 30 min post-treatment: 6” and the “Pain 45 min post-treatment” value is “Pain 45 min post-treatment: 6^B”.

As to `Oc1ccc2c(c1)[C@@]13CCCC[C@@]1(O)[C@@H](C2)N(CC1CCC1)CC3` [butorphanol], the “Effect of intranasal butorphanol on chronic non-headache pain following intranasal ropivacaine” value in the data set with tinnitus is “faster onset and a far more powerful effect”.
